Target: Nurr1:RXR heterodimer (Homo sapiens, UniProt P19793+P43354)
Test: Nurr1 LBD:RXRα LBD heterodimerization assay (HTRF)
Assay type: biochemical
Conditions: 30 μM, Tb3+-cryptate Nurr1 LBD and sGFP-RXRα LBD
Method: To determine the molecular response of the Nurr1:RXR heterodimer on dual agonist binding, we employed homogenous time-resolved fluorescence resonance energy transfer (HTRF) based assays with labeled Nurr1 and RXR LBD proteins. Tb^3+-cryptate as streptavidin conjugate served as FRET donor and was coupled to biotinylated proteins. sGFP fusion proteins of the receptors of interest were used as FRET acceptors. Ligand effects on dimer formation were determined by titrating the sGFP-labeled dimer partner with a fixed concentration of the Tb^3+-labeled counterpart. […] The same effect was also observable for the natural product 1 (Figure S3).
Nurr1 dimerization assays (HTRF). Modulation of Nurr1 LBD homodimerization and heterodimerization of the LDBs of Nurr1 and RXRα was investigated by HTRF as reported previously4. Nurr1 LBD or RXRα LBD proteins labeled with sGFP were titrated against a fixed concentration of Tb3+-cryptate as streptavidin conjugate (Tb-SA) (610SATLF, Revvity) coupled to biotinylated Nurr1 LBD protein in the presence of test compounds at 30 µM or absence of compound as a negative control (apo). Assay solutions were prepared in buffer containing 25 mM HEPES pH 7.5, 150 mM KF, 5% (m/v) glycerol, 5 mM DTT, 0.1% (m/v) CHAPS and 1%
DMSO. The FRET donor complex was formed from biotinylated Nurr1 LBD (final concentration 0.188 nM) and Tb-SA (0.375 nM) and was kept constant. For the homodimerization assay, the FRET acceptor consisted of sGFP-Nurr1 LBD, which was titrated from 0.5 µM, while free sGFP was added to keep the total GFP content stable at 0.5 µM. […] Samples were equilibrated at room temperature for 2 h and fluorescence intensities (FI) after excitation at 340 nm were recorded at 520 nm for sGFP acceptor fluorescence and at 620 for Tb-SA donor fluorescence on a SPARK plate reader (Tecan Group Ltd.). […]
Evaluation of Nurr1-regulated gene expression. […] RNA concentration and purity were assessed using a NanoDrop One UV-vis spectrophotometer (Thermo Fisher Scientific) at 260/280 nm. […]

Chain of Nurr1:RXR heterodimer (P43354 360-595 limits assumed): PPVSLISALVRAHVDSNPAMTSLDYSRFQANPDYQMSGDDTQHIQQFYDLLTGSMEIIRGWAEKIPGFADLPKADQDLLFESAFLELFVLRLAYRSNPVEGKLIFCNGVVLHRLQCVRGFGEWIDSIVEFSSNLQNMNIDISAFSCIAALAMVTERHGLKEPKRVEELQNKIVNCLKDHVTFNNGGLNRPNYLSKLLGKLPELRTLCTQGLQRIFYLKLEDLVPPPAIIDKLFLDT
Chain of Nurr1:RXR heterodimer (P19793 227-458 limits assumed): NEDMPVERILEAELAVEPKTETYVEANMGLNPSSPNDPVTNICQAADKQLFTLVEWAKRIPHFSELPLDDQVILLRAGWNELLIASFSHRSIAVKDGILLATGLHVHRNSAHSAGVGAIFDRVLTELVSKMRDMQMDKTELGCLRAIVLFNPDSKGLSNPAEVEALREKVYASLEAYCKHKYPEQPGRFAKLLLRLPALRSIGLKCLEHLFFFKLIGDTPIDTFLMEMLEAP

| SMILES | Nurr1:RXR heterodimer formation |
| --- | --- |
| Cc1c(C)n(-c2ccc(CC(=O)O)cc2)c2ccc(F)cc12 [compound 3] | left the dimer intact |
| Cc1c2c(n(-c3ccc(CC(=O)O)cc3)c1C)CCC(F)(F)C2 [compound 2] | left the dimer intact |
